Target: T1, Human calcitonin receptor (Homo sapiens, UniProt P30988)
T1 construct: expressed in transfected cells; host or cells: BHK-570 (Hollex-1)
T1 sequence (P30988 25-474): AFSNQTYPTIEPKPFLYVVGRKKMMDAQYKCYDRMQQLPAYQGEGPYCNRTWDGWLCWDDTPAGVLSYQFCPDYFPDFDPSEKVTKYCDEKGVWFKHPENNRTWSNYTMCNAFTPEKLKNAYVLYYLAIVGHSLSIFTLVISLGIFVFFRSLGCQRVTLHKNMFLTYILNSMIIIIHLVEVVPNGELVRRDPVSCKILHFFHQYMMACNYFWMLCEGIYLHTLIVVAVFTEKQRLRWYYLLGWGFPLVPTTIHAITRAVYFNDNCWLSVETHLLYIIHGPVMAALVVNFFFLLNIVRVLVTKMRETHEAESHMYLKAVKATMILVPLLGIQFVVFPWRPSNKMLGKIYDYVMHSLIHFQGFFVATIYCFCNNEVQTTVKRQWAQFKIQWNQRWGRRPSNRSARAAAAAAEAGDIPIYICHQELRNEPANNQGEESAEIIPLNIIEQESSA
Test: CRE-luciferase assay for calcitonin mimetics (Hollex-1)
Type: cell-based
Procedure: CRE-Luciferase Assay Method for Calcitonin Mimetics
Human calcitonin receptor-positive and receptor-negative BHK-570 (Baby Hamster Kidney) cell lines were maintained by serial passage in growth medium (DMEM supplemented with 10% heat-inactivated fetal calf serum (HI-FCS), 2 mM L-glutamine, 1 mM sodium pyruvate, 250 nM MTX, and 1 mg/mL G418). On the day prior to assay, cells were trypsinized, adjusted to 2.5×10^5 cells/ml in growth medium, plated in opaque white Dynatech Microlite microtiter tissue culture plates at 50 μL/well, and grown overnight to confluence (37° C., 5% CO2 atmosphere).
Test substances were prepared in DMSO or 10% DMF at 100 times the final desired assay concentration. […] Controls were included on each plate: untreated wells (basal), […], and 100 nM human calcitonin. DMSO or DMF was included in control wells at a concentration equal to that in test samples (not to exceed a final assay concentration of 2% DMSO or 0.5% DMF, with a preferred maximum of 1% DMSO or 0.1% DMF).
Plates were incubated for 3 to 8 hours (4 hours preferred) at 37° C. in an atmosphere of 5% CO2. Following induction, luciferase activity was measured using a Promega luciferase assay kit (E1500) according to the assay kit protocol (Promega Corp., Madison, Wis.). Briefly, assay medium was removed and cells were washed once with phosphate buffered saline (PBS). After the wash, 25 μl of lysis buffer was added to each well, and the plates were incubated for 15 minutes at room temperature. Fifty microliters of Luciferase Assay Substrate (Promega, Corp.) was added to each well and the plates were transferred to a Labsystems Lumiscan microtiter luminometer (Labsystems Inc., Morton Grove, Ill.). The amount of luminescence (relative light units, RLU) was determined following a 0.1 second/well integration of signal. Basal (uninduced) luciferase signal was subtracted from all measurements, and the luciferase signal induced by test samples was expressed as a percentage of the signal in the calcitonin and forskolin controls. Specificity of the luciferase induction for calcitonin receptor-positive cell lines was determined by comparing the percent control values in the calcitonin receptor-positive line (Hollex-1) to those observed in the calcitonin receptor-negative cell line (KZ10-20-48/Zem 228) and the PTH receptor-positive cell line (KZ10-20-48/PTH-20) described below. Samples inducing a signal over the basal level were selected for further characterization, see Table 1 for examples.

Row | SMILES | Luciferase induction (% of maximum luciferase induction produced by CT, 100 nM) (crude compound 3.125 μg/ml) | Luciferase induction (% of maximum luciferase induction produced by CT, 100 nM) (crude compound 6.25 μg/ml) | Luciferase induction (% of maximum luciferase induction produced by CT, 100 nM) (crude compound 12.5 μg/ml) | Luciferase induction (% of maximum luciferase induction produced by CT, 100 nM) (crude compound 25 μg/ml) | Luciferase induction (% of maximum luciferase induction produced by CT, 100 nM) (crude compound 50 μg/ml)
1 | CCNC(=O)[C@@H](Cc1ccc2ccccc2c1)NC(=O)Nc1cc(C(C)(C)C)ccc1C(C)(C)C [628-025] | 0.42% | 0.65% | 2.33% | 7.96% | 22.61%
2 | CC(C)(C)c1ccc(C(C)(C)C)c(NC(=O)N[C@@H](C(=O)NCc2ccc3ccccc3c2)c2ccccc2)c1 [628-056] | 4.2% | 14.7% | 28.6% | 35.6% | 37.1%
3 | C=CCNC(=O)[C@@H](Cc1ccc(Cl)cc1)NC(=O)Nc1cc(C(C)(C)C)ccc1C(C)(C)C [628-032] |  | 25.42% | 27.28% | 31.34% | 33.94%
4 | CC(C)(C)c1ccc(C(C)(C)C)c(NC(=O)N[C@H](Cc2ccc(Cl)cc2)C(=O)NCc2ccc3ccccc3c2)c1 [628-052] | 9.57% | 23.59% | 36.63% | 40.21% | 38.27%
5 | C=CCNC(=O)C(Cc1cn(CC=C)c2ccccc12)NC(=O)Nc1cc(C(C)(C)C)ccc1C(C)(C)C (stereo not shown) [628-016] | 10.72% | 43.89% | 76.44% | 80.63% | 75.76%
6 | CCNC(=O)[C@@H](Cc1ccc(I)cc1)NC(=O)Nc1cc(C(C)(C)C)ccc1C(C)(C)C [628-024] | −1.24% | 1.39% | 11.8% | 22.64% | 30.25%
7 | CCNC(=O)C(Cc1cn(CC)c2ccccc12)NC(=O)Nc1cc(C(C)(C)C)ccc1C(C)(C)C (stereo not shown) [628-008] | −1.31% | 2.91% | 20.07% | 50.93% | 50.39%
8 | CCNC(=O)[C@@H](Cc1ccc(Cl)cc1)NC(=O)Nc1cc(C(C)(C)C)ccc1C(C)(C)C [628-022] | 2.08% | 3.26% | 17.85% | 41.52% | 46.98%
9 | C=CCNC(=O)C(Cc1ccc(OCC=C)cc1)NC(=O)Nc1cc(C(C)(C)C)ccc1C(C)(C)C (stereo not shown) [628-015] | 1.62% | 14.69% | 43.2% | 72.17% | 71.49%
10 | CC(C)(C)c1ccc(C(C)(C)C)c(NC(=O)N[C@H](Cc2ccc(Cl)cc2)C(=O)NCc2ccccc2)c1 [628-042] | 19.16% | 49.17% | 59.74% | 68.69% | 60.41%
11 | CC(C)(C)c1ccc(C(C)(C)C)c(NC(=O)N[C@H](Cc2ccc(I)cc2)C(=O)NCc2ccccc2)c1 [628-044] | 10.65% | 24.08% | 29.35% | 26.23% | 30.14%
12 | C=CCNC(=O)[C@@H](Cc1ccc(I)cc1)NC(=O)Nc1cc(C(C)(C)C)ccc1C(C)(C)C [628-034] |  | 6.89% | 25.02% | 33.86% | 38.68%
13 | CCNC(=O)[C@@H](Cc1ccc(F)cc1)NC(=O)Nc1cc(C(C)(C)C)ccc1C(C)(C)C [628-023] | −0.46% | 7.84% | 32.04% | 46.84% | 41.79%
14 | CC(C)(C)c1ccc(C(C)(C)C)c(NC(=O)N[C@H](Cc2ccc(F)cc2)C(=O)NCc2ccccc2)c1 [628-043] | 6.48% | 34.53% | 42.06% | 46.24% | 47.95%
15 | C=CCNC(=O)[C@@H](Cc1ccccc1)NC(=O)Nc1cc(C(C)(C)C)ccc1C(C)(C)C [628-013] | 3.51% | 17.98% | 51.62% | 69.62% | 64.26%
